Format in all cases: biochemical
One experiment addresses GSK-3β, (AA 1-420) (Homo sapiens, UniProt P49841). The experiment in a line: GSK-3 inhibition assay, coupled enzyme system. As to conditions: 20 μM ATP, 300 μM peptide, 20 nM GSK-3b, 30° C.; read-out: Ki values (GSK3). A digest of the protocol:
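Pyruvate kinase/lactate dehydrogenase-coupled NADH assay with 20 nM enzyme, 20 μM ATP and 300 μM peptide in HEPES pH 7.5, 1.5% DMSO, 30° C. Compound (0.002–30 μM, 12-point) preincubated 10 min before ATP start; rates over 10 min gave Ki.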

A further experiment concerns the target T1, c-KIT (Homo sapiens, UniProt P10721).
T1 construct: 0.02% BSA and 25 nM c-KIT
The experiment can be described thus: Inhibition of c-KIT, radiometric filter-binding assay. The note with it: 700 μM ATP, 0.5 mg/mL pE4Y, room temperature. A digest of the protocol:
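Radiometric filter-binding: 25 nM c-KIT (enzyme in the Solution 2 mix) with poly(Glu,Tyr) 4:1 substrate at 0.5 mg/mL and [γ-^33P]ATP at 700 μM (both final), in HEPES pH 7.5/MgCl2/NaCl/DTT/BSA with 2.5% DMSO. Incubated 20 min at room temperature, stopped with TCA, and ^33P incorporation counted on filters. 12-point titration, final compound typically 0.01-5 μM; IC50 or Ki from curve fit.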

The next experiment has as its target T2, Aurora-2 (Homo sapiens, UniProt O14965).
T2 construct: addition of 10 μL of Aurora-2 stock solution to give a final concentration of 70 nM
T2 sequence (O14965 1-403): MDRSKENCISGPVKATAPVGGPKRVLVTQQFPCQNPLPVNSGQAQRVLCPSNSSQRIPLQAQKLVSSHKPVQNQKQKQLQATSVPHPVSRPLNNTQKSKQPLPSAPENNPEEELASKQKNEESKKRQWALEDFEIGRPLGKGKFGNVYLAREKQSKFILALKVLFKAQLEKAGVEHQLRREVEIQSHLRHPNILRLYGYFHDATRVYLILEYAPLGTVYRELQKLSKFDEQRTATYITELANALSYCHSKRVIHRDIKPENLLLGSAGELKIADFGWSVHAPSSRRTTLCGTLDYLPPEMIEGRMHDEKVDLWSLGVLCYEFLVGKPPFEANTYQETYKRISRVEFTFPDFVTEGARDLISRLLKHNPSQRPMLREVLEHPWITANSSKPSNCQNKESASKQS
The experiment in a line: Inhibition of AUR-2, coupled enzyme assay. As to conditions: 70 nM Aurora-2, 800 μM peptide LRRASLG, 30° C. On the procedure:
Compounds are screened in the following manner for their ability to inhibit Aurora-2 using a standard coupled enzyme assay (Fox et al. (1998) Protein Sci 7, 2249). To an assay stock buffer solution containing 0.1M HEPES 7.5, 10 mM MgCl2, 1 mM DTT, 25 mM NaCl, 2.5 mM phosphoenolpyruvate, […], […], […], and 800 μM peptide (LRRASLG, American Peptide, Sunnyvale, Calif.) is added a DMSO solution of a compound of the present invention to a final concentration of 30 μM. The resulting mixture is incubated at 30° C. for 10 min. The reaction was initiated by the addition of 10 μL of Aurora-2 stock solution to give a final concentration of 70 nM in the assay. The rates of reaction are obtained by monitoring absorbance at 340 nm over a 5 minute read time at 30° C. using a BioRad Ultramark plate reader (Hercules, Calif.). The Ki values are determined from the rate data as a function of inhibitor concentration.

Chain of GSK-3β, (AA 1-420) (P49841 whole entry, the tested form may be a part): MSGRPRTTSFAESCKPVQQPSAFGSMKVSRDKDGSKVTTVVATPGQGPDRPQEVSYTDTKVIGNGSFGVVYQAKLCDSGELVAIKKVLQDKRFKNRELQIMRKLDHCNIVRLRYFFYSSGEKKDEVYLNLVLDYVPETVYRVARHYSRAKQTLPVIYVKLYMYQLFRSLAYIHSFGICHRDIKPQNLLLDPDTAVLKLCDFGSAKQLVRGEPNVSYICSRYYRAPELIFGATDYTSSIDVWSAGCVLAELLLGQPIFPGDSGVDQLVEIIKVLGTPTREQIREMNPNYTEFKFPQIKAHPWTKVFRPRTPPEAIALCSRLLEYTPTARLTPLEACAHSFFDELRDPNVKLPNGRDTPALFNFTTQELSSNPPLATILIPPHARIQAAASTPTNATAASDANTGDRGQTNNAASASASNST
T1 sequence (P10721 26-976): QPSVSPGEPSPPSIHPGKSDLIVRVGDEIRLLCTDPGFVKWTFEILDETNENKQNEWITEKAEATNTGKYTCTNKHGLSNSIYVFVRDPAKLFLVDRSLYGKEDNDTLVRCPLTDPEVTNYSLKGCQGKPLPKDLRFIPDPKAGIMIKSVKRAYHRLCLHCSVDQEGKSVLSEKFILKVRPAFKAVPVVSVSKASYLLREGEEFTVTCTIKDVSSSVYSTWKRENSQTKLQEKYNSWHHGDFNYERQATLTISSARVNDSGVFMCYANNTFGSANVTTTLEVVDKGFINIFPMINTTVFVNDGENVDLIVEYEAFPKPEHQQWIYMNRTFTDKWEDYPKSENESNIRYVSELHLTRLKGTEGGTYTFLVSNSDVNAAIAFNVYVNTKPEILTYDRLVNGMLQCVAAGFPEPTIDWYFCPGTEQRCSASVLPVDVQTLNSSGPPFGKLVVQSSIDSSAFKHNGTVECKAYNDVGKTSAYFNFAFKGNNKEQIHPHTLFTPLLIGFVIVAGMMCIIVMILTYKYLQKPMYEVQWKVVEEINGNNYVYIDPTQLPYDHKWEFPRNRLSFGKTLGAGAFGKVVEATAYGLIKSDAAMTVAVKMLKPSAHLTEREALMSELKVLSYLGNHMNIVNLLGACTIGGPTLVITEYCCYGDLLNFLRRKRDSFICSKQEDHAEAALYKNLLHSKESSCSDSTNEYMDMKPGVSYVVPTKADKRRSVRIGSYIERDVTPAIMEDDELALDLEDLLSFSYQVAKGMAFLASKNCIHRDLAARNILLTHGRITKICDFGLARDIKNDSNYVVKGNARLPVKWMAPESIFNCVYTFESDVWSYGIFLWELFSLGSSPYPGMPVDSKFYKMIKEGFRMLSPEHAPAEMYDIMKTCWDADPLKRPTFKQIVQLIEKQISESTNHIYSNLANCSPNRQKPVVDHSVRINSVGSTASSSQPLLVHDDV

On to `CN1CCN(Cc2ccc(-c3cnc4[nH]cc(-c5oncc5-c5cccc(F)c5F)c4c3)cc2)CC1` [Compound 94, 3-[4-(2,3-Difluoro-phenyl)-isoxazol-5-yl]-5-[4-(4-methyl-piperazin-1-ylmethyl)-phenyl]-1H-pyrrolo[2,3-b]pyridine], for which the Ki is 200 to 1000 nM at GSK-3β, (AA 1-420); less than 200 nM at c-KIT; less than 200 nM at Aurora-2.

In the case of `Fc1cccc(-c2cnoc2-c2c[nH]c3ncc(-c4ccc(CN5CCCC5)cc4)cc23)c1F` [Compound 93, 3-[4-(2,3-Difluoro-phenyl)-isoxazol-5-yl]-5-(4-pyrrolidin-1-ylmethyl-phenyl)-1H-pyrrolo[2,3-b]pyridine], the Ki is 200 to 1000 nM on GSK-3β, (AA 1-420); less than 200 nM on c-KIT; less than 200 nM on Aurora-2.

Consider `CC(=O)Nc1cccc(-c2cnc3[nH]cc(-c4oncc4-c4cccc(F)c4F)c3c2)c1` [Compound 65, N-(3-{3-[4-(2,3-Difluoro-phenyl)-isoxazol-5-yl]-1H-pyrrolo[2,3-b]pyridin-5-yl}-phenyl)-acetamide], for which the Ki at GSK-3β, (AA 1-420) is 200 to 1000 nM; at c-KIT it was less than 200 nM; on Aurora-2, less than 200 nM.

Take `CC(=O)Nc1ccc(-c2cnc3[nH]cc(-c4oncc4-c4cccc(F)c4F)c3c2)cc1` [Compound 95, N-(4-{3-[4-(2,3-Difluoro-phenyl)-isoxazol-5-yl]-1H-pyrrolo[2,3-b]pyridin-5-yl}-phenyl)-acetamide]: the Ki was 1000 to 12500 nM on GSK-3β, (AA 1-420); less than 200 nM on c-KIT; less than 200 nM at Aurora-2.

Consider `Nc1ccnc(-c2cnc3[nH]cc(-c4oncc4-c4cccc(F)c4F)c3c2)c1` [Compound 83, 2-{3-[4-(2,3-Difluoro-phenyl)-isoxazol-5-yl]-1H-pyrrolo [2,3-b]pyridin-5-yl}-pyridin-4-ylamine], for which the Ki at GSK-3β, (AA 1-420) is 200 to 1000 nM; at c-KIT, less than 200 nM; on Aurora-2, 200 to 1000 nM.

For the origin of these results see US7446199B2, “Compositions useful as inhibitors of protein kinases” (Vertex Pharmaceuticals Incorporated, priority 2003, dated 2008).
